Results as given in US20230382949A1 (HEPTARES THERAPEUTICS LIMITED, priority 2020, published 2023).
pEC50: −log10 of the molar value. Where two headings read alike, the source gives them in different places. Starred links: 1 amine or outer side, 2 acyl side, 3 side chain; linkers in the order of their positions; H or OH if unused. Non-standard residues stand in square brackets, D forms with d. Residues, ends and D or L forms follow the SMILES beside them. *: point of attachment. Ala(piperidin-4-yl) = O=C([C@H](CC1CCN([*:3])CC1)N[*:1])[*:2]; Malonyl(2,2-Me2,histaminyl) = CC(C)(C(=O)NCCc1cnc[nH]1)C(=O)*; dNMeBip = CN[C@H](Cc1ccc(-c2ccccc2)cc1)C(=O)O; dBip = N[C@H](Cc1ccc(-c2ccccc2)cc1)C(=O)O; Oic = O=C(O)[C@@H]1C[C@@H]2CCCC[C@@H]2N1; Phe(4-Br) = N[C@@H](Cc1ccc(Br)cc1)C(=O)O; His(τ-Me) = Cn1cnc(C[C@H](N)C(=O)O)c1; X5 = CC(C)(C(=O)NCc1c[nH]cn1)C(=O)*; hArg = N=C(N)NCCCC[C@H](N)C(=O)O; 3Pal = N[C@@H](Cc1cccnc1)C(=O)O; NMeQ = CN[C@@H](CCC(N)=O)C(=O)O; NMeL = CN[C@@H](CC(C)C)C(=O)O; Pip = O=C(O)[C@@H]1CCCCN1; Nle = CCCC[C@H](N)C(=O)O; Aib = CC(C)(N)C(=O)O; Sar = CNCC(=O)O

Tests used:
human Apelin receptor [1] = biological target: T1, human Apelin receptor (Homo sapiens, UniProt P35414); assay: cAMP accumulation assay (HTRF), functional agonism of human Apelin receptors; assay type: cell-based; settings: for Emax: CHO; for pEC50: pEC50, Human Apelin agonist cAMP assay; for EC50: read-out: pEC50 (converted)
T1 sequence (P35414 1-380): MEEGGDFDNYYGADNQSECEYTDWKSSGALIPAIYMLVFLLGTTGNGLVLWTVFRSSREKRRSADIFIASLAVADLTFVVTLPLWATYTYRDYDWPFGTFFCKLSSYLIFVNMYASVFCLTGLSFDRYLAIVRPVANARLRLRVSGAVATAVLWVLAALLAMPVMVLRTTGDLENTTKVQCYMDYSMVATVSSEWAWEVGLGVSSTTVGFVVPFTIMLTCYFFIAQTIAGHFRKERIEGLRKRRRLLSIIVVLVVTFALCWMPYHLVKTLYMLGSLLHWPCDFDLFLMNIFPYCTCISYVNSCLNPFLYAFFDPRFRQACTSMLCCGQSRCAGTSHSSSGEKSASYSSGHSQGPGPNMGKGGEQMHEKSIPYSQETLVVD
Description: cAMP functional assay. cAMP production was quantified using the Homogeneous Time-Resolved Fluorescence (HTRF) cAMP dynamic-2 assay (Cisbio, France).

human Apelin receptor [2] = biological target: T2, human Apelin receptor (Homo sapiens, UniProt P35414); assay: β-arrestin accumulation assay, functional agonism of human Apelin receptors; assay type: cell-based
T2 construct: host or cells: CHO-K1 cells
How it was run: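 After 16 h at 37° C., cells were exposed to increasing agonist concentrations in serum-free medium for 90 min at 37° C. Detection reagent added for 60 min in the dark; receptor activation read by fluorescence and EC50 derived from concentration-response curves.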
T2 sequence (P32121 whole entry partner, one chain of several): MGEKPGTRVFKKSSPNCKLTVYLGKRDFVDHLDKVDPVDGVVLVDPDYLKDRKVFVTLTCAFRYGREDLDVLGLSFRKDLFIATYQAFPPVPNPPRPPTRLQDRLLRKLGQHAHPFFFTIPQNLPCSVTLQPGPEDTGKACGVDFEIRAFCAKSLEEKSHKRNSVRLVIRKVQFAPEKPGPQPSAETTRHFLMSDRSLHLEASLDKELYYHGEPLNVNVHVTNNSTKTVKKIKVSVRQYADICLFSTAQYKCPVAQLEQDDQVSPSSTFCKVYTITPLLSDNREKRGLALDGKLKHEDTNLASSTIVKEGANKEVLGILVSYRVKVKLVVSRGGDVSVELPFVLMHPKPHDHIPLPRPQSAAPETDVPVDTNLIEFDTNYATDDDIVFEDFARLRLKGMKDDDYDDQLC

[3] = Human Apelin agonist cAMP assay, CHO cells stably expressing the human Apelin receptor, 3 uM forskolin
[4] = CHO cells stably expressing the human Apelin receptor, 3 uM forskolin

Row | Structure (SMILES) | Emax (human Apelin receptor [1]; [3]) [%] | pEC50 (human Apelin receptor [1]; [4]) | pEC50 (human Apelin receptor [2]) | Emax (human Apelin receptor [1]; read-out: Emax) [%] | EC50 (human Apelin receptor [1]) [nM]
1 | CC(C)C[C@H](NC(=O)[C@H](CCCNC(=N)N)NC(=O)[C@@H]1CCCN1C(=O)[C@@H](CCCNC(=N)N)NC(=O)[C@H](CCC(N)=O)NC(=O)C(C)(C)C(=O)NCCc1cnc[nH]1)C(=O)NC(C)(C)C(=O)N[C@@H](Cc1cn(C)cn1)C(=O)N[C@@H](CC1CCNCC1)C(=O)NCC(=O)N1[C@H](C(=O)N[C@@H](Cc2ccc(Br)cc2)C(=O)N2CCC[C@H]2C(=O)N[C@H](Cc2ccc(-c3ccccc3)cc2)C(=O)O)C[C@@H]2CCCC[C@@H]21 [Example 49] ({Malonyl(2,2-Me2,histaminyl)}-Q[dR]PRL[Aib][His(τ-Me)][Ala(piperidin-4-yl)]G[Oic][Phe(4-Br)]P[dBip]-OH) | 87.2 | 8.10 | < 5.00 | – | –
2 | CC(C)C[C@H](NC(=O)[C@@H](CCCNC(=N)N)NC(=O)[C@@H]1CCCN1C(=O)[C@H](CCCCNC(=N)N)NC(=O)[C@@H](CCC(N)=O)NC(=O)C(C)(C)C(=O)NCCc1cnc[nH]1)C(=O)NC(C)(C)C(=O)N[C@@H](Cc1c[nH]cn1)C(=O)N[C@@H](CC1CCNCC1)C(=O)NCC(=O)N1[C@H](C(=O)N[C@@H](Cc2ccc(Br)cc2)C(=O)N2CCC[C@H]2C(=O)N[C@H](Cc2ccc(-c3ccccc3)cc2)C(=O)O)C[C@@H]2CCCC[C@@H]21 [Example 50] ({Malonyl(2,2-Me2,histaminyl)}-[dQ][hArg]P[dR]L[Aib]H[Ala(piperidin-4-yl)]G[Oic][Phe(4-Br)]P[dBip]-OH) | 56.5 | 7.40 | < 5.00 | – | –
3 | CC(C)C[C@@H](C(=O)NC(C)(C)C(=O)N[C@@H](Cc1c[nH]cn1)C(=O)N[C@@H](CC1CCNCC1)C(=O)NCC(=O)N1[C@H](C(=O)N[C@@H](Cc2ccc(Br)cc2)C(=O)N2CCC[C@H]2C(=O)N[C@H](Cc2ccc(-c3ccccc3)cc2)C(=O)O)C[C@@H]2CCCC[C@@H]21)N(C)C(=O)[C@@H](CCCNC(=N)N)NC(=O)[C@@H]1CCCN1C(=O)[C@H](CCCCNC(=N)N)NC(=O)[C@H](CCC(N)=O)NC(=O)C(C)(C)C(=O)NCCc1cnc[nH]1 [Example 51] ({Malonyl(2,2-Me2,histaminyl)}-Q[hArg]P[dR][NMeL][Aib]H[Ala(piperidin-4-yl)]G[Oic][Phe(4-Br)]P[dBip]-OH) | 27.6 | 7.10 | < 5.00 | – | –
4 | CC(C)C[C@H](NC(=O)[C@@H](CCCNC(=N)N)NC(=O)[C@@H]1CCCN1C(=O)[C@H](CCCCNC(=N)N)NC(=O)[C@H](CCC(N)=O)NC(=O)C(C)(C)C(=O)NCCc1cnc[nH]1)C(=O)NC(C)(C)C(=O)N[C@@H](Cc1c[nH]cn1)C(=O)N[C@@H](CC1CCNCC1)C(=O)N(C)CC(=O)N1[C@H](C(=O)N[C@@H](Cc2ccc(Br)cc2)C(=O)N2CCC[C@H]2C(=O)N[C@H](Cc2ccc(-c3ccccc3)cc2)C(=O)O)C[C@@H]2CCCC[C@@H]21 [Example 52] ({Malonyl(2,2-Me2,histaminyl)}-Q[hArg]P[dR]L[Aib]H[Ala(piperidin-4-yl)][Sar][Oic][Phe(4-Br)]P[dBip]-OH) | 20.4 | 7.20 | < 5.00 | – | –
5 | CC(C)C[C@H](NC(=O)[C@@H](CCCNC(=N)N)NC(=O)[C@@H]1CCCN1C(=O)[C@H](CCCCNC(=N)N)NC(=O)[C@H](CCC(N)=O)NC(=O)C(C)(C)C(=O)NCc1c[nH]cn1)C(=O)NC(C)(C)C(=O)N[C@@H](Cc1c[nH]cn1)C(=O)N[C@@H](CC1CCNCC1)C(=O)NCC(=O)N1[C@H](C(=O)N[C@@H](Cc2ccc(Br)cc2)C(=O)N2CCC[C@H]2C(=O)N[C@H](Cc2ccc(-c3ccccc3)cc2)C(=O)O)C[C@@H]2CCCC[C@@H]21 [Example 53] (X5-Q[hArg]P[dR]L[Aib]H[Ala(piperidin-4-yl)]G[Oic][Phe(4-Br)]P[dBip]-OH) | – | – | < 5.00 | 79.2 | 31.6
6 | CC(C)C[C@H](NC(=O)[C@@H](CCCNC(=N)N)NC(=O)[C@@H]1CCCCN1C(=O)[C@H](CCCCNC(=N)N)NC(=O)[C@H](CCC(N)=O)NC(=O)C(C)(C)C(=O)NCCc1cnc[nH]1)C(=O)NC(C)(C)C(=O)N[C@@H](Cc1c[nH]cn1)C(=O)N[C@@H](CC1CCNCC1)C(=O)N[C@@H](C)C(=O)N1[C@H](C(=O)N[C@@H](Cc2ccc(Br)cc2)C(=O)N2CCC[C@H]2C(=O)N[C@H](Cc2ccc(-c3ccccc3)cc2)C(=O)O)C[C@@H]2CCCC[C@@H]21 [Example 54] ({Malonyl(2,2-Me2,histaminyl)}-Q[hArg][Pip][dR]L[Aib]H[Ala(piperidin-4-yl)]A[Oic][Phe(4-Br)]P[dBip]-OH) | – | – | < 5.00 | 61.2 | 1.26
7 | CC(C)C[C@H](NC(=O)[C@@H](CCCNC(=N)N)NC(=O)[C@@H]1CCCCN1C(=O)[C@H](CCCNC(=N)N)NC(=O)[C@H](CCC(N)=O)NC(=O)C(C)(C)C(=O)NCCc1cnc[nH]1)C(=O)NC(C)(C)C(=O)N[C@@H](Cc1c[nH]cn1)C(=O)N[C@@H](CC1CCNCC1)C(=O)NCC(=O)N1[C@H](C(=O)N[C@@H](Cc2ccc(Br)cc2)C(=O)N2CCC[C@H]2C(=O)N[C@H](Cc2ccc(-c3ccccc3)cc2)C(=O)O)C[C@@H]2CCCC[C@@H]21 [Example 55] ({Malonyl(2,2-Me2,histaminyl)}-QR[Pip][dR]L[Aib]H[Ala(piperidin-4-yl)]G[Oic][Phe(4-Br)]P[dBip]-OH) | – | – | < 5.00 | 85.9 | 12.6
8 | CC(C)C[C@H](NC(=O)[C@@H](CCCNC(=N)N)NC(=O)[C@@H]1CCCCN1C(=O)[C@H](CCCCNC(=N)N)NC(=O)[C@H](CCC(N)=O)NC(=O)C(C)(C)C(=O)NCCc1cnc[nH]1)C(=O)NC(C)(C)C(=O)N[C@@H](Cc1cccnc1)C(=O)N[C@@H](CC1CCNCC1)C(=O)NCC(=O)N1[C@H](C(=O)N[C@@H](Cc2ccc(Br)cc2)C(=O)N2CCC[C@H]2C(=O)N[C@H](Cc2ccc(-c3ccccc3)cc2)C(=O)O)C[C@@H]2CCCC[C@@H]21 [Example 56] ({Malonyl(2,2-Me2,histaminyl)}-Q[hArg][Pip][dR]L[Aib][3Pal][Ala(piperidin-4-yl)]G[Oic][Phe(4-Br)]P[dBip]-OH) | – | – | < 5.00 | 68.1 | 20
9 | CC(C)C[C@H](NC(=O)[C@@H](CCCNC(=N)N)NC(=O)[C@@H]1CCCN1C(=O)[C@H](CCCCNC(=N)N)NC(=O)[C@H](CCC(N)=O)NC(=O)C(C)(C)C(=O)NCCc1cnc[nH]1)C(=O)NC(C)(C)C(=O)N[C@@H](Cc1cnc[nH]1)C(=O)N[C@@H](CC1CCNCC1)C(=O)NCC(=O)N1[C@H](C(=O)N[C@@H](Cc2ccc(Br)cc2)C(=O)N2CCC[C@H]2C(=O)N(C)[C@H](Cc2ccc(-c3ccccc3)cc2)C(=O)O)C[C@@H]2CCCC[C@@H]21 [Example 57] ({Malonyl(2,2-Me2,histaminyl)}-Q[hArg]P[dR]L[Aib]H[Ala(piperidin-4-yl)]G[Oic][Phe(4-Br)]P[dNMeBip]-OH) | 45.9 | 7.20 | < 5.00 | – | –
10 | CC(C)C[C@H](NC(=O)[C@@H](CCCNC(=N)N)NC(=O)[C@@H]1CCCN1C(=O)[C@H](CCCCNC(=N)N)NC(=O)[C@H](CCC(N)=O)N(C)C(=O)C(C)(C)C(=O)NCCc1cnc[nH]1)C(=O)NC(C)(C)C(=O)N[C@@H](Cc1c[nH]cn1)C(=O)N[C@@H](CC1CCNCC1)C(=O)NCC(=O)N1[C@H](C(=O)N[C@@H](Cc2ccc(Br)cc2)C(=O)N2CCC[C@H]2C(=O)N[C@H](Cc2ccc(-c3ccccc3)cc2)C(=O)O)C[C@@H]2CCCC[C@@H]21 [Example 58] ({Malonyl(2,2-Me2,histaminyl)}-[NMeQ][hArg]P[dR]L[Aib]H[Ala(piperidin-4-yl)]G[Oic][Phe(4-Br)]P[dBip]-OH) | 33 | 6.10 | < 4.00 | – | –
11 | CCCC[C@H](NC(=O)[C@@H]1C[C@@H]2CCCC[C@@H]2N1C(=O)CNC(=O)[C@H](CC1CCNCC1)NC(=O)[C@H](Cc1c[nH]cn1)NC(=O)[C@@H](C)NC(=O)[C@H](CC(C)C)NC(=O)[C@H](CCCNC(=N)N)NC(=O)[C@@H]1CCCN1C(=O)[C@H](CCCNC(=N)N)NC(=O)[C@H](CCC(N)=O)NC(=O)C(C)(C)C(=O)NCCc1cnc[nH]1)C(=O)N1CCC[C@H]1C(=O)N[C@H](Cc1ccc(-c2ccccc2)cc1)C(=O)O [Example 59] ({Malonyl(2,2-Me2,histaminyl)}-QRPRL[dA]H[Ala(piperidin-4-yl)]G[Oic][Nle]P[dBip]-OH) | 48.1 | 7.00 | < 5.00 | – | –
12 | CCCC[C@H](NC(=O)[C@@H]1C[C@@H]2CCCC[C@@H]2N1C(=O)CNC(=O)[C@H](CC1CCNCC1)NC(=O)[C@H](Cc1ccc(Br)cc1)NC(=O)C(C)(C)NC(=O)[C@H](CC(C)C)NC(=O)[C@@H](CCCNC(=N)N)NC(=O)[C@@H]1CCCN1C(=O)[C@H](CCCCNC(=N)N)NC(=O)[C@H](CCC(N)=O)NC(=O)C(C)(C)C(=O)NCCc1cnc[nH]1)C(=O)N1CCC[C@H]1C(=O)N[C@H](Cc1ccc(-c2ccccc2)cc1)C(=O)O [Example 60] ({Malonyl(2,2-Me2,histaminyl)}-Q[hArg]P[dR]L[Aib][Phe(4-Br)][Ala(piperidin-4-yl)]G[Oic][Nle]P[dBip]-OH) | – | – | < 5.00 | 59 | 50.1
